Assay results from PubChem BioAssay (NCI).
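Method: 48-hour compound exposure of cells in 96-well plates, five concentrations, linear interpolation of endpoints. GI50: concentration for 50% inhibition of growth. TGI marks complete inhibition of growth.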

Legend:
Test in all cases: growth of human tumour cells (NCI), 48 h
[1] = test system: SNB-78 CNS
[2] = test system: LXFL 529 NSCLC
[3] = test system: KM20L2 colon
[4] = test system: DMS 114 small cell lung
[5] = test system: HOP-18 NSCLC
[6] = test system: XF 498 CNS
[7] = test system: MDA-MB-435
[8] = test system: MDA-N
[9] = test system: RXF-631 renal

Structure (SMILES)	TGI [2]	TGI [3]	GI50 [7]	TGI [7]	further results
C=CCn1c2c(sc1=S)C(S)N=CN2 (stereo unspecified)	> 100 µM	> 100 µM	–	–	TGI [1]: > 100 µM; TGI [4]: > 100 µM; TGI [5]: 70.1 µM; TGI [6]: > 100 µM
O=C(Nc1ccc(Cl)c(Cl)c1)Nc1ccccc1O	–	–	3.96 µM	15.3 µM	–
CCOC(=O)Cn1c(=O)n(C)c(=O)c2c1ncn2Cc1ccccc1	> 100 µM	> 100 µM	–	–	TGI [1]: > 100 µM; TGI [4]: > 100 µM; TGI [6]: > 100 µM
O=C1C(Cl)=C(Nc2ccccc2O)C(=O)N1Cc1ccccc1	–	–	19.7 µM	37.4 µM	–
CO/N=C(/C)c1cccc(Nc2cc(-c3ccccc3)nc3ccc(OC)cc23)c1	–	–	1.99 µM	6.12 µM	–
N#Cc1ccc(OC(=O)Nc2ccc(Cl)c(Cl)c2)cc1	–	–	3.17 µM	22.4 µM	–
CC[C@@]1(O)C(=O)OCc2c1cc1n(c2=O)Cc2c-1nc1cc(F)c(C)c3c1c2[C@@H](N)CC3	–	–	0.015 µM	1.48 µM	–
Cc1nn(C(=O)c2ccc(Cl)cc2)c2c1C(c1ccc(O)cc1)SC(N)=N2 (stereo unspecified)	–	–	–	> 10 µM	TGI [8]: > 10 µM
Cc1ncc([N+](=O)[O-])n1CCNS(=O)(=O)CCCn1ncnc1[N+](=O)[O-]	–	–	–	> 100 µM	TGI [8]: > 100 µM
O=c1oc2ccc(Br)cc2c(=O)n1-c1ccc(F)cc1F	–	–	2.85 µM	10.4 µM	–
O=[N+]([O-])c1ccc(CSCc2ccc(Cl)cc2)cc1	–	–	–	> 100 µM	TGI [8]: > 100 µM
Cc1cccc(C(C)C)c1NC(=O)C(=O)C(C(=O)c1ccccc1F)C1OC(=O)c2ccccc21 (stereo unspecified)	27.4 µM	76.5 µM	–	–	TGI [9]: 60.3 µM; TGI [4]: 36.1 µM; TGI [5]: 32.4 µM; TGI [6]: 23.3 µM
Cn1cc(-c2ccc(-c3cncc(Cl)c3N3CCC4(CCNC4=O)CC3)cc2)cn1	–	–	38.7 µM	> 100 µM	–
O=C(CSC(c1ccccc1)c1ccccc1)N/N=C/c1ccco1	–	–	2.01 µM	11.5 µM	–
Cc1cc(C(C)(C)C)cc(Cc2cc(C(C)(C)C)cc(Cc3cc(C(C)(C)C)cc(C)c3O)c2O)c1O	20.5 µM	29.6 µM	–	–	TGI [1]: 17.9 µM; TGI [4]: 12.1 µM; TGI [5]: 29 µM; TGI [6]: 4.13 µM
COC(=O)c1cc(/C=C/c2ccc(S(N)(=O)=O)cc2)ccc1O	–	–	35.6 µM	> 100 µM	–
O=C(N/N=C/c1c(Cl)cccc1Cl)c1ccc(C(F)(F)F)nc1Nc1cccc(C(F)(F)F)c1	–	–	2.37 µM	> 100 µM	–
c1ccc(CSc2nc3ccccc3nc2-c2cccs2)cc1	> 100 µM	–	–	–	TGI [1]: > 100 µM; TGI [4]: > 100 µM; TGI [5]: > 100 µM; TGI [6]: > 100 µM
COCOc1ccc(C2(O)Oc3cc(OCOC)ccc3C2C)c(O)c1 (stereo unspecified)	–	–	–	28.1 µM	TGI [8]: 28.7 µM
COC1=C(Br)C(=O)c2nc(C)ccc2C1=O	16.7 µM	33.3 µM	–	–	TGI [1]: 41.6 µM; TGI [4]: 31.6 µM; TGI [5]: 30.9 µM

Structure (SMILES)	TGI [2]	TGI [3]	GI50 [7]	TGI [7]	further results
O=C(O)CN(c1ccccc1)S(=O)(=O)c1ccc([N+](=O)[O-])cc1	> 100 µM	> 100 µM	–	–	TGI [9]: > 100 µM; TGI [5]: > 100 µM; TGI [6]: > 100 µM
Cn1c(=O)c2c(ncn2CC(=O)Nc2ccc(-c3ccccc3)nn2)n(C)c1=O	–	–	> 100 µM	> 100 µM	–
Cc1cc(C)n(-c2nnc3n2N=C(c2ccc(-c4ccccc4)cc2)CS3)n1	–	–	1.71 µM	4.46 µM	–
N.N.NCCCCCCCCCN.O=C([O-])CC(=O)[O-].O=C([O-])CC(=O)[O-].[Pt+4].[Pt+4]	> 100 µM	> 100 µM	–	–	GI50 [1]: > 100 µM; TGI [1]: > 100 µM; GI50 [2]: > 100 µM; GI50 [3]: > 100 µM; GI50 [5]: > 100 µM; TGI [5]: > 100 µM
CN(C)CCSc1nccc(-c2cc3ccccc3s2)n1	30.9 µM	–	–	–	TGI [1]: 47.8 µM; TGI [4]: 51.6 µM
C[C@]12CC[C@@H]3c4ccc(O)c([N+](=O)[O-])c4CC[C@H]3[C@@H]1CC[C@@H]2NS(=O)(=O)c1cccc(Br)c1	–	–	1.53 µM	2.98 µM	–
CCCCc1c2c(nc3c1CCC/C3=C\c1ccccc1)/C(=C/c1ccccc1)CCC2	> 100 µM	> 100 µM	–	–	TGI [4]: > 100 µM; TGI [6]: > 100 µM
CC1CN1c1c(C(=O)/C=C/c2ccc(Cl)cc2)c(-c2ccccc2)nn(C)c1=O (stereo unspecified)	5.13 µM	> 10 µM	–	–	TGI [1]: 5.17 µM; TGI [4]: > 10 µM; TGI [5]: > 10 µM; TGI [6]: 5.5 µM
Cc1cccc(C)c1NC(=O)C(=O)CC(=O)c1cccc([N+](=O)[O-])c1	> 100 µM	> 100 µM	–	–	TGI [1]: > 100 µM; TGI [5]: > 100 µM; TGI [6]: > 100 µM
COc1ccc2c3c(Nc4ccc(/C(C)=N/O)cc4)[nH]c4ccccc4c-3c(N=O)c2c1	–	–	2.77 µM	11.9 µM	–
COc1ccc2c(Oc3ccc(NC(=O)c4c(C)n(CC(C)(C)O)n(-c5ccccc5)c4=O)nc3)ccnc2c1	–	–	6.57 µM	> 66.5 µM	–
CC(=O)OC1C2CCC1C1C2C2(Cl)C(Cl)=C(Cl)C1(Cl)C2(Cl)Cl (stereo unspecified)	33.9 µM	22.9 µM	–	–	TGI [1]: 34.8 µM; TGI [4]: 26.7 µM; TGI [5]: 33.8 µM; TGI [6]: 23.1 µM
COC(C(=O)[C@@H](O)[C@@H](C)O)[C@@H]1Cc2cc3cc(O[C@H]4C[C@@H](O[C@H]5C[C@@H](O)[C@H](O)C(C)O5)[C@H](O)C(C)O4)c(C)c(O)c3c(O)c2C(=O)[C@H]1O[C@H]1C[C@@H](O[C@H]2C[C@@H](O[C@H]3C[C@@H](O)[C@H](OC)C(C)O3)[C@@H](O)C(C)O2)[C@H](O)C(C)O1 (stereo partly specified)	–	–	0.0219 µM	0.197 µM	–
O=C(OCc1ccc2c(Cl)cc(Cl)c(O)c2n1)N1CCN(C(=O)c2cc3cc(F)ccc3[nH]2)CC1	–	–	0.358 µM	2.18 µM	–
C/C(=N\NC(=S)N1CC2CCC(CC2)C1)c1ccccn1	–	–	0.141 µM	1.64 µM	–
CC(C)C1=C2CCC3(C)C(CCC4C5C6OCC5(CCC6(C)C)CCC43C)C2(C)CC1 (stereo unspecified)	–	–	–	36.6 µM	TGI [8]: 30.2 µM
C/C(CCn1[nH]c(=O)ccc1=O)=N\OCCCc1ccccc1	> 100 µM	> 100 µM	–	–	TGI [1]: > 100 µM; TGI [4]: > 100 µM; TGI [5]: > 100 µM; TGI [6]: > 100 µM
O=C(N/N=C/c1ccc([N+](=O)[O-])o1)c1ccc(O)cc1	–	–	1.65 µM	3.19 µM	–
CCCCCCCCCCCCOC1C(C(CC(=O)NCCN2CCCC2)NS(=O)(=O)c2cc(Cl)cc(Cl)c2)OC2OC(C)(C)OC21 (stereo unspecified)	–	–	1.41 µM	3.03 µM	–
